Assay results published in patent publication US9695155B2, “Herbicidal substituted pyrimidinyloxy benzene compounds” (E. I. DU PONT DE NEMOURS AND COMPANY, priority 2013, dated 2017).

How the values were obtained:
[1] = system: morningglory; assay: Test C postemergence; format: in vivo, Ipomoea coccinea
In short: (§1)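 Greenhouse herbicide screen. Pre: seeded loam/sand, sprayed at planting. Post: 1–4 leaf plants (2–18 cm) in peat-based mix. Formulation: solvent mixture + surfactant, non-phytotoxic. Readout: visual % control vs untreated, 13–15 d; dash = not tested.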

[2] = system: barnyardgrass; assay: Test A postemergence; format: in vivo, Echinochloa crus-galli
In short: (§2)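 Visual 0–100 rating (100 = complete control) taken about 10 d post-treatment relative to untreated checks. Preemergence: directed soil spray on sown loam/sand pots. Postemergence: seedlings 2–10 cm, 1–2 leaf. Non-phytotoxic solvent formulation with surfactant.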

[3] = system: corn; assay: Test A postemergence; format: in vivo, Zea mays
In short: as §2

[4] = system: morningglory; assay: Test A postemergence; format: in vivo, Ipomoea spp.
In short: as §2

[5] = system: Heteranthera limosa; assay: Test B flooded paddy test; format: in vivo; conditions: Flood, 250 g ai/ha, 0 to 100 scale where 0 is no effect and 100 is complete control
In short: (§3)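 Visual ratings on a 0 to 100 scale, where 100 means complete control, compared treated plants with controls after 13 to 15 days in a greenhouse. Treatment went into paddy water 3 cm deep over the soil, applied to plants at the 2-leaf stage.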

[6] = system: giant foxtail; assay: Test A postemergence; format: in vivo, Setaria faberii
In short: as §2

[7] = system: chickweed; assay: Test C postemergence; format: in vivo, Stellaria media
In short: as §1

[8] = system: galium; assay: Test C postemergence; format: in vivo, Galium aparine
Source text: Seeds of plant species selected from blackgrass (Alopecurus myosuroides), Italian ryegrass (Lolium multiflorum), wheat, winter (winter wheat, Triticum aestivum), galium (catchweed bedstraw, Galium aparine), corn (Zea mays), large (Lg) crabgrass (Digitaria sanguinalis), giant foxtail (Setaria faberii), johnsongrass (Sorghum halepense), lambsquarters (Chenopodium album), morningglory (Ipomoea coccinea), yellow nutsedge (Cyperus esculentus), pigweed (Amaranthus retroflexus), ragweed (common ragweed, Ambrosia elatior), soybean (Glycine max), barnyardgrass (Echinochloa crus-galli), oilseed rape (Brassica napus), waterhemp (common waterhemp, Amaranthus rudis), kochia (Kochia scoparia), wild oat (Avena fatua), surinam grass (Brachiaria decumbens), foxtail, green (green foxtail, Setaria viridis), goosegrass (Eleusine indica), bromegrass, downy (downy bromegrass, Bromus tectorum), nightshade (eastern black nightshade, Solanum ptycanthum), cocklebur (common cocklebur, Xanthium strumarium), cupgrass, woolly (woolly cupgrass, Eriochloa villosa), bermudagrass (Cynodon dactylon), sunflower, (common oilseed sunflower, Helianthus annuus), Russian thistle (Salsola kali), and velvetleaf (Abutilon theophrasti) were planted into a blend of loam soil and sand and treated preemergence with test chemicals formulated in a non-phytotoxic solvent mixture which included a surfactant.
At the same time, plants selected from these crop and weed species and also barley, winter (winter barley, Hordeum vulgare), windgrass (Apera spica-venti), chickweed (common chickweed, Stellaria media), deadnettle (henbit deadnettle, Lamium amplexicaule), and canarygrass (littleseed canarygrass, Phalaris minor) were planted in pots containing Redi-Earth® planting medium (Scotts Company, 14111 Scottslawn Road, Marysville, Ohio 43041) comprising spaghnum peat moss, vermiculite, wetting agent and starter nutrients and treated with postemergence applications of test chemicals formulated in the same manner. Plants ranged in height from 2 to 18 cm (1- to 4-leaf stage) for postemergence treatments. Treated plants and controls were maintained in a greenhouse for 13 to 15 days, after which time all species were compared to controls and visually evaluated. Plant response ratings, summarized in Table C, are based on a scale of 0 to 100 where 0 is no effect and 100 is complete control. A dash (-) response means no test result.

[9] = system: velvetleaf; assay: Test A postemergence; format: in vivo, Abutilon theophrasti
In short: as §2

[10] = system: barnyardgrass; assay: Test B flooded paddy test; format: in vivo, Echinochloa crus-galli; conditions: Flood, 250 g ai/ha, 0 to 100 scale where 0 is no effect and 100 is complete control
In short: as §3

[11] = system: large (Lg) crabgrass; assay: Test A postemergence; format: in vivo, Digitaria sanguinalis
In short: as §2

[12] = Postemergence, 31 g ai/ha, scale 0 to 100 (0 no effect, 100 complete control), 13 to 15 days
[13] = Postemergence, 62 g ai/ha, scale 0 to 100 (0 no effect, 100 complete control)
[14] = 125 g ai/ha, 0 to 100 scale where 0 is no effect and 100 is complete control
[15] = 500 g ai/ha, 0 to 100 scale, 0 no effect, 100 complete control

SMILES: Fc1cnc(Oc2ccccc2-n2cc(Br)cn2)nc1 [Compound 10, 2-[2-(4-bromo-1H-pyrazol-1-yl)phenoxy]-5-fluoropyrimidine]
- pest or weed control at 125 g/ha ([1]; Ipomoea, post-emergence, 125 g ai/ha, postemergence, read-out: Plant response rating (0 to 100), Morningglory): 65%
- pest or weed control at 250 g/ha ([1]; Ipomoea, post-emergence, 250 g ai/ha, postemergence, read-out: Plant response rating (0 to 100), Morningglory): 85%
- pest or weed control at 31 g/ha ([1]; Ipomoea, post-emergence, Postemergence, 31 g ai/ha, scale 0 to 100 (0 no effect, 100 complete control), 13 to 15 days, read-out: Plant response rating, Morningglory): 40%
- pest or weed control at 62 g/ha ([1]; Ipomoea, post-emergence, Postemergence, 62 g ai/ha, scale 0 to 100 (0 no effect, 100 complete control), read-out: Plant response rating, Morningglory): 65%
- pest or weed control at 125 g/ha ([2]; Echinochloa crus-galli, post-emergence, 240 h, 125 g ai/ha, 0 to 100 scale where 0 is no effect and 100 is complete control, read-out: Plant response rating, Barnyardgrass): 40%
- pest or weed control at 500 g/ha ([2]; Echinochloa crus-galli, post-emergence, 240 h, 500 g ai/ha, 0 to 100 scale, 0 no effect, 100 complete control, read-out: Plant response rating Barnyardgrass): 90%
- Corn plant response rating (crop injury, 0 = no effect, 100 = complete kill) at 125 g/ha ([3]; Zea mays, post-emergence, 240 h, 125 g ai/ha, 0 to 100 scale where 0 is no effect and 100 is complete control): 20%
- plant injury at 500 g/ha ([3]; Zea mays, post-emergence, 240 h, 500 g ai/ha, 0 to 100 scale, 0 no effect, 100 complete control, read-out: Plant response rating Corn): 50%
- pest or weed control at 125 g/ha ([4]; Ipomoea, post-emergence, 240 h, 125 g ai/ha, 0 to 100 scale where 0 is no effect and 100 is complete control, read-out: Plant response rating, Morningglory): 90%
- pest or weed control at 500 g/ha ([4]; Ipomoea, post-emergence, 240 h, 500 g ai/ha, 0 to 100 scale, 0 no effect, 100 complete control, read-out: Plant response rating Morningglory): 100%
- pest or weed control at 250 g/ha ([5]; Heteranthera limosa, read-out: Plant response rating, Ducksalad): 75%
- pest or weed control at 125 g/ha ([6]; Setaria faberi, post-emergence, 240 h, 125 g ai/ha, 0 to 100 scale where 0 is no effect and 100 is complete control, read-out: Plant response rating, Foxtail, Giant): 50%
- pest or weed control at 500 g/ha ([6]; Setaria faberi, post-emergence, 240 h, 500 g ai/ha, 0 to 100 scale, 0 no effect, 100 complete control, read-out: Plant response rating Foxtail, Giant): 90%
- pest or weed control at 125 g/ha ([7]; Stellaria media, post-emergence, 125 g ai/ha, postemergence, read-out: Plant response rating (0 to 100), Chickweed): 35%
- pest or weed control at 250 g/ha ([7]; Stellaria media, post-emergence, 250 g ai/ha, postemergence, read-out: Plant response rating (0 to 100), Chickweed): 98%
- pest or weed control at 31 g/ha ([7]; Stellaria media, post-emergence, Postemergence, 31 g ai/ha, scale 0 to 100 (0 no effect, 100 complete control), 13 to 15 days, read-out: Plant response rating, Chickweed): 5%
- pest or weed control at 62 g/ha ([7]; Stellaria media, post-emergence, Postemergence, 62 g ai/ha, scale 0 to 100 (0 no effect, 100 complete control), read-out: Plant response rating, Chickweed): 30%
- pest or weed control at 125 g/ha ([8]; Galium, post-emergence, 125 g ai/ha, postemergence, read-out: Plant response rating (0 to 100), Galium): 80%
- pest or weed control at 250 g/ha ([8]; Galium, post-emergence, 250 g ai/ha, postemergence, read-out: Plant response rating (0 to 100), Galium): 95%
- pest or weed control at 31 g/ha ([8]; Galium, post-emergence, Postemergence, 31 g ai/ha, scale 0 to 100 (0 no effect, 100 complete control), 13 to 15 days, read-out: Plant response rating, Galium): 65%
- pest or weed control at 62 g/ha ([8]; Galium, post-emergence, Postemergence, 62 g ai/ha, scale 0 to 100 (0 no effect, 100 complete control), read-out: Plant response rating, Galium): 80%
- pest or weed control at 125 g/ha ([9]; Abutilon theophrasti, post-emergence, 240 h, 125 g ai/ha, 0 to 100 scale where 0 is no effect and 100 is complete control, read-out: Plant response rating, Velvetleaf): 100%
- pest or weed control at 500 g/ha ([9]; Abutilon theophrasti, post-emergence, 240 h, 500 g ai/ha, 0 to 100 scale, 0 no effect, 100 complete control, read-out: Plant response rating Velvetleaf): 100%
- pest or weed control at 250 g/ha ([10]; Echinochloa crus-galli, read-out: Plant response rating, Barnyardgrass): 0%
- pest or weed control at 125 g/ha ([11]; Digitaria sanguinalis, post-emergence, 240 h, 125 g ai/ha, 0 to 100 scale where 0 is no effect and 100 is complete control, read-out: Plant response rating, Crabgrass, Large): 50%
- pest or weed control at 500 g/ha ([11]; Digitaria sanguinalis, post-emergence, 240 h, 500 g ai/ha, 0 to 100 scale, 0 no effect, 100 complete control, read-out: Plant response rating Crabgrass, Large): 80%

SMILES: N#Cc1cccc(Oc2ncc(F)cn2)c1-n1cc(Br)cn1 [Compound 62]
- Plant response rating (0 to 100), Morningglory ([1]; 125 g ai/ha, postemergence): 85
- Plant response rating (0 to 100), Morningglory ([1]; 250 g ai/ha, postemergence): 90
- Plant response rating, Morningglory [1, 12]: 65
- Plant response rating, Morningglory [1, 13]: 70
- Plant response rating, Barnyardgrass [2, 14]: 90
- Plant response rating, Barnyardgrass [2, 15]: 100
- Plant response rating, Corn [3, 14]: 70
- Plant response rating, Corn [3, 15]: 90
- Plant response rating, Morningglory [4, 14]: 90
- Plant response rating, Morningglory [4, 15]: 100
- Plant response rating, Ducksalad [5]: 80
- Plant response rating, Foxtail, Giant [6, 14]: 90
- Plant response rating, Foxtail, Giant [6, 15]: 100
- Plant response rating (0 to 100), Chickweed ([7]; 125 g ai/ha, postemergence): 75
- Plant response rating (0 to 100), Chickweed ([7]; 250 g ai/ha, postemergence): 90
- Plant response rating, Chickweed [7, 12]: 50
- Plant response rating, Chickweed [7, 13]: 50
- Plant response rating (0 to 100), Galium ([8]; 125 g ai/ha, postemergence): 80
- Plant response rating (0 to 100), Galium ([8]; 250 g ai/ha, postemergence): 95
- Plant response rating, Galium [8, 12]: 65
- Plant response rating, Galium [8, 13]: 65
- Plant response rating, Velvetleaf [9, 14]: 100
- Plant response rating, Velvetleaf [9, 15]: 100
- Plant response rating, Barnyardgrass [10]: 0
- Plant response rating, Crabgrass, Large [11, 14]: 90
- Plant response rating, Crabgrass, Large [11, 15]: 100
